Data published in patent publication US11180462B2, “Microbiocidal oxadiazole derivatives” (SYNGENTA PARTICIPATIONS AG, priority 2015, dated 2021).

What was measured:
[1] = tested on: Puccinia recondita f. Sp. Tritici; assay: Fungicidal activity against Puccinia recondita f. sp. tritici / wheat / leaf disc preventative (brown rust); format: in vivo; conditions: foliar, 200 ppm in the applied formulation, wheat leaf segments, preventative, compared to untreated control leaf disks, read-out: disease control
How it was run: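 200 ppm spray on wheat cv. Kanzler leaf segments; spore inoculation +1 day; 19° C., 75% rh, 12 h/12 h light cycle; single rating of % control vs untreated at 7 to 9 days.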

[2] = tested on: Glomerella lagenarium (Colletotrichum lagenarium); assay: Fungicidal activity against Glomerella lagenarium (Colletotrichum lagenarium) liquid culture / cucumber / preventative (anthracnose); format: cell-based; conditions: Colletotrichum orbiculare; 20 ppm in the applied formulation; liquid culture (PDB), growth inhibition measured photometrically after 3 to 4 days; compared to untreated control; read-out: disease control
How it was run: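 Percent activity against the untreated check was derived from photometric growth measurements made 2 to 7 days after conidia in potato dextrose broth were combined with compound at 20 ppm. Cultures were kept dark at 24 °C and 96% humidity.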

[3] = tested on: Puccinia recondita f. Sp. Tritici; assay: Fungicidal activity against Puccinia recondita f. sp. tritici / wheat / leaf disc curative (brown rust); format: in vivo; conditions: foliar, 24 h, 200 ppm in the applied formulation, wheat leaf segments, curative (applied 1 day after inoculation), compared to untreated control leaf disks, read-out: disease control
How it was run: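 Segments of wheat cv. Kanzler were laid on agar and inoculated with a spore suspension of the rust, then held in darkness at 19° C and 75% relative humidity. One day later the water-diluted formulated compound was applied, with incubation continued under a 12 h light/dark cycle.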

CC#CC(=O)N(OC)C(C)c1ccc(-c2noc(C(F)(F)F)n2)cc1 (stereo not drawn) [Compound 1.248, N-methoxy-N-[1-[4-[5-(trifluoromethyl)-1,2,4-oxadiazol-3-yl]phenyl]ethyl]but-2-ynamide]
≥ 80%: pest or weed control at 200 ppm [1] | inhibition of growth at 20 ppm [2] | pest or weed control at 200 ppm [3]

COCCN(C)C(=O)N(Cc1ccc(-c2noc(C(F)(F)F)n2)cc1)OC [Compound 3.63, 1-methoxy-3-(2-methoxyethyl)-3-methyl-1-[[4-[5-(trifluoromethyl)-1,2,4-oxadiazol-3-yl]phenyl]methyl]urea]
≥ 80%: pest or weed control at 200 ppm [1] | inhibition of growth at 20 ppm [2] | pest or weed control at 200 ppm [3]

CCN(Cc1ccc(-c2noc(C(F)(F)F)n2)cc1)C(=O)CCl [Compound 1.502, 2-chloro-N-ethyl-N-[[4-[5-(trifluoromethyl)-1,2,4-oxadiazol-3-yl]phenyl]methyl]-acetamide]
≥ 80%: pest or weed control at 200 ppm [1] | inhibition of growth at 20 ppm [2] | pest or weed control at 200 ppm [3]

CON(C(=O)C1CSC1)C(C)c1ccc(-c2noc(C(F)(F)F)n2)cc1 (stereo not drawn) [Compound 1.259, N-methoxy-N-[1-[4-[5-(trifluoromethyl)-1,2,4-oxadiazol-3-yl]phenyl]ethyl]-thietane-3-carboxamide]
≥ 80%: pest or weed control at 200 ppm [1] | inhibition of growth at 20 ppm [2] | pest or weed control at 200 ppm [3]

CCN(Cc1ccc(-c2noc(C(F)(F)F)n2)cc1)C(=O)N(CCOC)CCOC [Compound 3.102, 1-ethyl-3,3-bis(2-methoxyethyl)-1-[[4-[5-(trifluoromethyl)-1,2,4-oxadiazol-3-yl]phenyl]methyl]urea]
≥ 80%: pest or weed control at 200 ppm [1] | inhibition of growth at 20 ppm [2] | pest or weed control at 200 ppm [3]

COCCN(Cc1ccc(-c2noc(C(F)(F)F)n2)cc1)C(C)=O [Compound 1.364, N-(2-methoxyethyl)-N-[[4-[5-(trifluoromethyl)-1,2,4-oxadiazol-3-yl]phenyl]methyl]-acetamide]
≥ 80%: pest or weed control at 200 ppm [1] | inhibition of growth at 20 ppm [2] | pest or weed control at 200 ppm [3]

CN(Cc1ccc(-c2noc(C(F)(F)F)n2)cc1)C(=O)N(C)C1CC1 [Compound 3.72, 1-cyclopropyl-1,3-dimethyl-3-[[4-[5-(trifluoromethyl)-1,2,4-oxadiazol-3-yl]phenyl]methyl]urea]
≥ 80%: pest or weed control at 200 ppm [1] | inhibition of growth at 20 ppm [2] | pest or weed control at 200 ppm [3]

C=CCN(Cc1ccc(-c2noc(C(F)(F)F)n2)cc1)C(=O)CNC(C)=O [Compound 1.481, 2-acetamido-N-allyl-N-[[4-[5-(trifluoromethyl)-1,2,4-oxadiazol-3-yl]phenyl]methyl]-acetamide]
≥ 80%: pest or weed control at 200 ppm [1] | inhibition of growth at 20 ppm [2] | pest or weed control at 200 ppm [3]

CON(Cc1ccc(-c2noc(C(F)(F)F)n2)cc1)C(=O)COC(F)F [Compound 1.785, 2-(difuoromethoxy)-N-methoxy-N-[[4-[5-(trifluoromethyl)-1,2,4-oxadiazol-3-yl]phenyl]methyl]-acetamide]
≥ 80%: pest or weed control at 200 ppm [1] | inhibition of growth at 20 ppm [2] | pest or weed control at 200 ppm [3]

C=CCN(C)C(=O)N(C)Cc1ccc(-c2noc(C(F)(F)F)n2)cc1 [Compound 3.78, 1-allyl-1,3-dimethyl-3-[[4-[5-(trifluoromethyl)-1,2,4-oxadiazol-3-yl]phenyl]methyl]urea]
≥ 80%: pest or weed control at 200 ppm [1] | inhibition of growth at 20 ppm [2] | pest or weed control at 200 ppm [3]

CCN(Cc1ccc(-c2noc(C(F)(F)F)n2)cc1)C(=O)N(C)C1CCC1 [Compound 3.101, 1-cyclobutyl-3-ethyl-1-methyl-3-[[4-[5-(trifluoromethyl)-1,2,4-oxadiazol-3-yl]phenyl]methyl]urea]
≥ 80%: pest or weed control at 200 ppm [1] | inhibition of growth at 20 ppm [2] | pest or weed control at 200 ppm [3]

CC1(C(=O)N(Cc2ccc(-c3noc(C(F)(F)F)n3)cc2)CC2CCCO2)CC1 (stereo not drawn) [Compound 1.431, 1-methyl-N-(tetrahydrofuran-2-ylmethyl)-N-[[4-[5-(trifluoromethyl)-1,2,4-oxadiazol-3-yl]phenyl]methyl]-cyclopropane-carboxamide]
≥ 80%: pest or weed control at 200 ppm [1] | inhibition of growth at 20 ppm [2] | pest or weed control at 200 ppm [3]

COCCC(=O)N(CCO)Cc1ccc(-c2noc(C(F)(F)F)n2)cc1 [Compound 1.713, N-(2-hydroxyethyl)-3-methoxy-N-[[4-[5-(trifluoromethyl)-1,2,4-oxadiazol-3-yl]phenyl]methyl]-propanamide]
≥ 80%: pest or weed control at 200 ppm [1] | inhibition of growth at 20 ppm [2] | pest or weed control at 200 ppm [3]

CC(C)N(C)C(=O)N(C)Cc1ccc(-c2noc(C(F)(F)F)n2)cc1 [Compound 3.79, 1-isopropyl-1,3-dimethyl-3-[[4-[5-(trifluoromethyl)-1,2,4-oxadiazol-3-yl]phenyl]methyl]urea]
≥ 80%: pest or weed control at 200 ppm [1] | inhibition of growth at 20 ppm [2] | pest or weed control at 200 ppm [3]

CCC(C)N(Cc1ccc(-c2noc(C(F)(F)F)n2)cc1)C(=O)C1(C)CC1 (stereo not drawn) [Compound 1.388, 1-methyl-N-sec-butyl-N-[[4-[5-(trifluoromethyl)-1,2,4-oxadiazol-3-yl]phenyl]methyl]-cyclopropane-carboxamide]
≥ 80%: pest or weed control at 200 ppm [1] | inhibition of growth at 20 ppm [2] | pest or weed control at 200 ppm [3]

COCCN(Cc1ccc(-c2noc(C(F)(F)F)n2)cc1)C(=O)CC(C)C [Compound 1.336, N-(2-methoxyethyl)-3-methyl-N-[[4-[5-(trifluoromethyl)-1,2,4-oxadiazol-3-yl]phenyl]methyl]-butanamide]
≥ 80%: pest or weed control at 200 ppm [1] | inhibition of growth at 20 ppm [2] | pest or weed control at 200 ppm [3]

CC#CC(=O)N(CCOC)Cc1ccc(-c2noc(C(F)(F)F)n2)cc1 [Compound 1.323, N-(2-methoxyethyl)-N-[[4-[5-(trifluoromethyl)-1,2,4-oxadiazol-3-yl]phenyl]methyl]but-2-yaamide]
≥ 80%: pest or weed control at 200 ppm [1] | inhibition of growth at 20 ppm [2] | pest or weed control at 200 ppm [3]

CCOC(=O)CN(C)C(=O)N(CC)Cc1ccc(-c2noc(C(F)(F)F)n2)cc1 [Compound 3.92, ethyl 2-[[ethyl-[[4-[5-(trifluoromethyl)-1,2,4-oxadiazol-3-yl]phenyl]methyl]-carbamoyl]-methyl-amino]acetate]
≥ 80%: pest or weed control at 200 ppm [1] | inhibition of growth at 20 ppm [2] | pest or weed control at 200 ppm [3]

CC=C(C)C(=O)N(Cc1ccc(-c2noc(C(F)(F)F)n2)cc1)C(C)CC (stereo not drawn) [Compound 1.374, 2-methyl-N-sec-butyl-N-[[4-[5-(trifluoromethyl)-1,2,4-oxadiazol-3-yl]phenyl]methyl]but-2-enamide]
≥ 80%: pest or weed control at 200 ppm [1] | inhibition of growth at 20 ppm [2] | pest or weed control at 200 ppm [3]

CCOCC(=O)N(Cc1ccc(-c2noc(C(F)(F)F)n2)cc1)CC1CCCO1 (stereo not drawn) [Compound 1.426, 2-ethoxy-N-(tetrahydrofuran-2-ylmethyl)-N-[[4-[5-(trifluoromethyl)-1,2,4-oxadiazol-3-yl]phenyl]methyl]-acetamide]
≥ 80%: pest or weed control at 200 ppm [1] | inhibition of growth at 20 ppm [2] | pest or weed control at 200 ppm [3]

CN(Cc1ccc(-c2noc(C(F)(F)F)n2)cc1)C(=O)N(C)C1CCC1 [Compound 3.82, 1-cyclobutyl-1,3-dimethyl-3-[[4-[5-(trifluoromethyl)-1,2,4-oxadiazol-3-yl]phenyl]methyl]urea]
≥ 80%: pest or weed control at 200 ppm [1] | inhibition of growth at 20 ppm [2] | pest or weed control at 200 ppm [3]

CCCON(Cc1ccc(-c2noc(C(F)(F)F)n2)cc1)C(=O)C(C)CC (stereo not drawn) [Compound 1.308, 2-methyl-N-propoxy-N-[[4-[5-(trifiuoromethyl)-1,2,4-oxadiazol-3-yl]phenyl]methyl]-butanamide]
≥ 80%: pest or weed control at 200 ppm [1] | inhibition of growth at 20 ppm [2] | pest or weed control at 200 ppm [3]

CCOC(=O)N(Cc1ccc(-c2noc(C(F)(F)F)n2)cc1)OC [Compound 2.1, ethyl N-methoxy-N-[[4-[5-(trifluoromethyl)-1,2,4-oxadiazol-3-yl]phenyl]methyl]-carbamate]
≥ 80%: pest or weed control at 200 ppm [1] | inhibition of growth at 20 ppm [2] | pest or weed control at 200 ppm [3]
